Source: ChEMBL document CHEMBL2331431, “Anti-inflammatory lanostanoids and lactone derivatives from Antrodia camphorata” (J Nat Prod, 2013)
In brackets after ≈: the same amount, converted by molar mass.

Assays:
[1] = biological target: T1, Nitric oxide synthase, inducible (Mus musculus, UniProt P29477); experiment: Inhibition of iNOS-mediated nitric oxide production in LPS-stimulated mouse RAW264.7 cells after 24 hrs by Griess reaction analysis; type: cell-based
T1 sequence (P29477 whole entry): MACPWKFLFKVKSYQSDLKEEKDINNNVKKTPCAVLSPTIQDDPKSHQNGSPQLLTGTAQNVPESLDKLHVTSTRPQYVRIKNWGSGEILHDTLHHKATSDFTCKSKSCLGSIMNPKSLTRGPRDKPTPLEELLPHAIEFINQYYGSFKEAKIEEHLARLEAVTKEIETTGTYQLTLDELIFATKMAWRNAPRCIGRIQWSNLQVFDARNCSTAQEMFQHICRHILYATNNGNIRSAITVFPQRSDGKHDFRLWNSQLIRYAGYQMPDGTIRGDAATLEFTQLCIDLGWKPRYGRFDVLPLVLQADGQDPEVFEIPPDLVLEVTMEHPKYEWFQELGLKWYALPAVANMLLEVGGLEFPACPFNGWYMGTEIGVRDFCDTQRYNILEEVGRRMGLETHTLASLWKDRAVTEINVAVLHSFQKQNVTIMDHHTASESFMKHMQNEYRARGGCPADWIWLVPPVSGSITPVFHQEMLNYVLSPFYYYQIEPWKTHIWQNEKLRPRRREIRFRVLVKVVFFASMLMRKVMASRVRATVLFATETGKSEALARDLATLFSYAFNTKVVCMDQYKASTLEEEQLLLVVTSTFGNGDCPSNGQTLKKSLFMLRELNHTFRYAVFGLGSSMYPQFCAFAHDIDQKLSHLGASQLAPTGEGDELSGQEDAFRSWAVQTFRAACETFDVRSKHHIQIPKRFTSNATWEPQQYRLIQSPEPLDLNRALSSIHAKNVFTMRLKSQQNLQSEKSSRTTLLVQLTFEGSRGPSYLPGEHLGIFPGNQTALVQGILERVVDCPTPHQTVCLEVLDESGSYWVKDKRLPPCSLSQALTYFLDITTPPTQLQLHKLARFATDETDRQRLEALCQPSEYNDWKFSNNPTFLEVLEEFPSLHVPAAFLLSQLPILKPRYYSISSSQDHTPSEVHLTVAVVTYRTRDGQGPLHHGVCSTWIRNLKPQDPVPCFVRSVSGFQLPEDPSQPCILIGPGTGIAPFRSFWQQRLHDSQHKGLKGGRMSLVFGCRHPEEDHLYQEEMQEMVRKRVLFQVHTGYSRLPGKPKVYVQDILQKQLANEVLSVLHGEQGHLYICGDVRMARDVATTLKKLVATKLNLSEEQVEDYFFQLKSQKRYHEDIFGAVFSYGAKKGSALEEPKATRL

RAW264.7 = experiment: Cytotoxicity against LPS-stimulated mouse RAW264.7 cells at 20 ug/ml; type: cell-based
K562 = experiment: Cytotoxicity against human K562 cells assessed as inhibition of cell proliferation after 24 hrs; type: functional, cell-based; settings: K562, 24 h
HL-60 = experiment: Cytotoxicity against human HL60 cells assessed as inhibition of cell proliferation after 24 hrs; type: functional, cell-based; settings: HL-60, 24 h

SMILES	IC50 [1] [µM]	Activity (RAW264.7)	IC50 (K562) [µg/mL]	IC50 (HL-60) [µg/mL]
C/C(=C\CC[C@@H](C)[C@H]1CC[C@@]2(C)C3=C([C@H](O)C[C@]12C)[C@@]1(C)CCC(=O)C(C)(C)[C@@H]1CC3=O)C(=O)O	5	Non-toxic	–	–
COc1cc(CCC(=O)O)oc(=O)c1	> 20	Non-toxic	–	–
C/C(=C\CC[C@@H](C)[C@H]1CC[C@@]2(C)C3=C(C(=O)C[C@]12C)[C@@]1(C)CCC(=O)C(C)(C)[C@@H]1CC3=O)C(=O)O	5	Non-toxic	–	–
CC(=O)O[C@H]1C[C@H]([C@H](C)CC(=O)CC(C)C(=O)O)[C@@]2(C)CC(=O)C3=C(CC[C@H]4C(C)(C)C(=O)CC[C@]34C)[C@]12C (some centres not stated)	4.9	Non-toxic	–	–
CC(CC(=O)C[C@@H](C)C1=CC(=O)[C@@]2(C)C3=C(C(=O)C[C@]12C)[C@@]1(C)CCC(=O)C(C)(C)[C@@H]1C[C@@H]3O)C(=O)O (some centres not stated)	> 20	Non-toxic	–	–
COCC1(O)OC(=O)C=C1C (racemic)	> 20	Non-toxic	–	–
CCOC(=O)CC[C@@H](C)[C@H]1CC(=O)[C@@]2(C)C3=C(C(=O)C[C@]12C)[C@@]1(C)CCC(=O)C(C)(C)[C@@H]1C[C@@H]3O [ETHYL LUCIDENATE A]	10.8	Non-toxic	30 (≈ 61.6 µM)	30 (≈ 61.6 µM)

Now from value to compound, other results behind:

IC50 [1] [µM]	SMILES	Activity (RAW264.7)	IC50 (K562) [µg/mL]	IC50 (HL-60) [µg/mL]
8.9	COC(=O)C(C)CC(=O)C[C@@H](C)[C@H]1CC(=O)[C@@]2(C)C3=C(C(=O)C(=O)[C@]12C)[C@@]1(C)CCC(=O)C(C)(C)[C@@H]1CC3=O (some centres not stated)	Non-toxic	–	–
6.2	CCOC(=O)C(C)CC(=O)C[C@@H](C)[C@H]1CC(=O)[C@@]2(C)C3=C(C(=O)C(=O)[C@]12C)[C@@]1(C)CCC(=O)C(C)(C)[C@@H]1CC3=O (some centres not stated)	Non-toxic	–	–
> 20	CCOC(=O)CC[C@@H](C)[C@H]1CC(=O)[C@@]2(C)C3=C(C(=O)C[C@]12C)[C@@]1(C)CCC(=O)C(C)(C)[C@@H]1CC3=O [ETHYL LUCIDENATE F]	Non-toxic	–	–
